Assay results taken from patent publication US10473670B2 (University of Kentucky Research Foundation, priority 2016, dated 2019).

Tests used:
[1] = system: mTORC1 and ERK1/2 signaling; test: Western blot of p-S6K1 and p-ERK1/2 in BON cells; assay type: cell-based, human; conditions: AICAR 3 h
Protocol: (§1) FIGS. 16A-D show graphs and images illustrating Cross-talk of AMPK and mTORC1 signaling. A. Diagram of cross-talk of AMPK and mTORC1 signaling. B. Western blot analysis of BON cells treated with or without AICAR (left panel) or 1 mM AICAR and CC (10 μM) (right panel) for 3 h. C. NT EIA (upper panel) and western blotting (lower panel) on BON cells expressing control vector and myc-raptor S722A/S792A treated with AICAR (1 mM) for 3 h. D. NT EIA (upper panel) and western blotting (lower panel) on BON cells expressing control vector and NTC and TSC2 siRNA treated with AICAR (1 mM) for 3 h. *p<0.05 vs. control in vector, †p<0.05 vs. AICAR in vector (C); *p<0.05 vs. control in NTC siRNA, †p<0.05 vs. control in NTC siRNA, ‡ p<0.05 vs. AICAR in NTC siRNA (D). n=6. All data are mean+/−SD.
AMPK activation inhibits mTORC1 through raptor, a component of mTORC1, or TSC2, a negative regulator of mTORC1 signaling. […] Moreover, a stable BON overexpression cell line was generated with a mutant raptor vector in which both Ser722 and Ser792 (AMPK phosphorylation sites) are replaced by alanine. […] Together, these findings further indicate the interaction of AMPK, mTORC1 and ERK signaling in the regulation of NT secretion.

BON cells = test: NT secretion from BON cells (NT EIA); assay type: cell-based, human
Protocol: as §1, with “FIGS. 14A-C show graphs and images illustrating that FFA activates AMPK signaling and increases NT secretion. A. Plasma NT of male C57BL/6 mice (5-mo-old, n=5) 1 h after olive oil (OO) oral gavage. *p<0.05 vs. NC; n=5. B. NT EIA (upper panels) and western blotting (lower panels) on BON cells treated with or without OA for 1 h. C. NT EIA (upper panels) and western blotting (lower panels) on QGP-1 cells treated with or without OA for 1 h. *p<0.05 vs. control; n=6. All data are mean+/-SD. FIGS.” for “FIGS.”, “[…]/[…]” for “S722A/S792A”, “mean+/-SD. […]” for “mean+/−SD.”

AMPK [2] = test: Western blot of p-AMPK in FHs 74 Int cells; assay type: cell-based, human; conditions: FHs 74 Int cells; AICAR 1 mM 2 h, oleate 0.1 mM 1 h
Protocol: G. Human small intestinal cells (FHs74Int) (left panel) and RIE-1 cells (right panel) were treated with the indicated concentrations of oleate for 1 h and lysates were analyzed by western blotting. […] All data are mean+/−SD. Experiments in vitro were at least repeated three times.

FHs74Int cells = test: In vitro FA absorption (BODIPY FL C16) in FHs74Int cells; assay type: cell-based, human; conditions: AICAR 1 mM 3 h, BODIPY FL C16 15 min
Protocol: All data are mean+/−SD. Experiments in vitro were at least repeated three times.
For in vitro FA absorption or lipid accumulation studies, FHs74Int and RIE-1 cells were incubated with either bovine serum albumin (BSA) (Sigma-Aldrich) or BSA-conjugated BODIPY® FL C16 (4,4-Difluoro-5,7-Dimethyl-4-Bora-3a,4a-Diaza-s-Indacene-3-Hexadecanoic Acid) (Life Technologies) for 15 min. BSA-conjugated oleate sodium was also used to treat cells for 1 h; cells were then stained with BODIPY® 493/503 (4,4-Difluoro-1,3,5,7,8-Pentamethyl-4-Bora-3a,4a-Diaza-s-Indacene) (Life Technologies). Images were observed under an FV1000 Olympus confocal microscope with a ×60, 1.35-numerical aperture oil objective (Olympus, Tokyo, Japan). Images were analyzed with Olympus FV10-ASW2.1 software. To quantify green intensity, 3 images were taken at consistent conditions and 10 cells from each image were analyzed using the area tool. […] Cells were collected, lysed and triglyceride content was measured by Triglyceride Determination Kit (Sigma-Aldrich). All experiments were carried in serum-free medium and fatty acid-free BSA was used at 0.1%.

STC-1 cells = test: NT release from STC-1 cells (NT EIA); assay type: cell-based, mouse; conditions: OA 0.25 mM, phorbol myristate acetate 100 nM
Source text: (§2) FIGS. 15A-B show graphs and images illustrating that FFAR1 and FFAR4 agonists increase AMPK activity. A. NT IF (left panel), NT EIA (middle panel, *p<0.05 vs. control) and western blotting (right panel) of STC-1 cells. B. Real-time PCR. GAPDH was used as the internal control (BON cell expression was arbitrarily set at 1). All data are mean+/−SD.
(§3) FFAR1 (previously known as GPR40) and FFAR4 (previously known as GPR120) are medium- to long-chain FFA G-protein-coupled receptors that have been implicated in the regulation of energy homeostasis and hormone secretion.

QGP-1 cells = test: NT secretion from QGP-1 cells (NT EIA); assay type: cell-based, human; conditions: OA 1 h
Protocol: FIGS. 14A-C show graphs and images illustrating that FFA activates AMPK signaling and increases NT secretion. A. Plasma NT of male C57BL/6 mice (5-mo-old, n=5) 1 h after olive oil (OO) oral gavage. *p<0.05 vs. NC; n=5. B. NT EIA (upper panels) and western blotting (lower panels) on BON cells treated with or without OA for 1 h. C. NT EIA (upper panels) and western blotting (lower panels) on QGP-1 cells treated with or without OA for 1 h. *p<0.05 vs. control; n=6. All data are mean+/−SD. Fifty μl of media were used to measure NT levels using NT EIA Kit from Phoenix Pharmaceuticals (Burlingame, Calif.) as described previously^30-33.

AMPK [3] = test: Western blot of p-AMPK and p-ACC in QGP-1 cells; assay type: cell-based, human; conditions: OA 1 h
Protocol: (§4) FIGS. 14A-C show graphs and images illustrating that FFA activates AMPK signaling and increases NT secretion. A. Plasma NT of male C57BL/6 mice (5-mo-old, n=5) 1 h after olive oil (OO) oral gavage. *p<0.05 vs. NC; n=5. B. NT EIA (upper panels) and western blotting (lower panels) on BON cells treated with or without OA for 1 h. C. NT EIA (upper panels) and western blotting (lower panels) on QGP-1 cells treated with or without OA for 1 h. *p<0.05 vs. control; n=6. All data are mean+/−SD. Tissues and cells were lysed with lysis buffer (Cell Signaling Technology), and equal amounts of protein were resolved on 4-12% NuPAGE BisTris gels (Life Technologies) and electrophoretically transferred to polyvinylidene difluoride (PVDF) membranes; the membranes were incubated with primary antibodies overnight at 4° C. followed by secondary antibodies conjugated with horseradish peroxidase. Membranes were developed using chemiluminescence (ECL) Western Blotting System from GE Healthcare Life Science (Piscataway, N.J.) and Thermo Scientific (Waltham, Mass.).

AMPK [4] = test: Western blot of p-AMPK in STC-1 cells; assay type: cell-based, mouse; conditions: agonists 1 μM, 90 min, or OA
Source text: as §2, §3

AMPK [5] = test: Western blot of p-AMPK and p-ACC in BON cells; assay type: cell-based, human; conditions: OA 1 h
Protocol: as §4

| Compound | expression of p-S6K1 [1] | p-ERK1/2 [1] | NT secretion (BON cells; AICAR 1 mM 3 h) | oleate-stimulated p-AMPK (AMPK [2]) | FA absorption (FHs74Int cells) | NT release (STC-1 cells) | NT secretion (QGP-1 cells) | NT secretion (BON cells; OA 1 h) | phosphorylation of AMPK (p-AMPK) (AMPK [3]) | phosphorylation of acetyl-CoA carboxylase (p-ACC) (AMPK [3]) | p-AMPK expression (AMPK [4]) | phosphorylation of AMPK (p-AMPK) (AMPK [5]) | phosphorylation of acetyl-CoA carboxylase (p-ACC) (AMPK [5]) |
| --- | --- | --- | --- | --- | --- | --- | --- | --- | --- | --- | --- | --- | --- |
| NC(=O)c1ncn([C@@H]2O[C@H](CO)[C@@H](O)[C@H]2O)c1N [AICAR, 5-aminoimidazole-4-carboxamide-1-β-D-ribofuranoside] | decreased expression of p-S6K1 | increased p-ERK1/2 | stimulated NT secretion | further increased oleate-stimulated p-AMPK | concomitantly decreased FA absorption |  |  |  |  |  |  |  |  |
| CCCCCCCC/C=C\CCCCCCCC(=O)O [OA, oleic acid] |  |  |  |  |  | stimulated NT release | stimulated NT secretion | stimulated NT secretion | increased phosphorylation | increased phosphorylation | increased p-AMPK expression | increased phosphorylation | increased phosphorylation |
